This is an account of results in patent US5968526A, “T cell epitopes of the major allergens from Dermatophagoides (house dust mite)” (Immulogic Pharamaceutical Corporation, priority 1995, dated 1999).

What all share (format): cell-based, human
For assay [1], the system named is T cell lines primed in vitro to Der p I. The assay can be described thus: secondary proliferation of Der p I-primed T cell lines (Examples V, VII, XI). The note with it: for T cell reactivity: overlapping Der p I peptides. In outline:
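PBMC were primed with native or recombinant Der p I (10 or 20 μg/ml) for 7 days, then expanded with IL-2 and IL-4. Resting T cells (2×10^4) were cultured 3 days with irradiated autologous EBV-B cells or PBMC and titrated protein or peptides, then pulsed 16 h with 1 μCi ³H-thymidine. S.I. was peak-response CPM over medium-only CPM, with S.I. ≥2.0 scored positive.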

In assay [2] the test system is PBMC from mite-allergic patient. The assay can be described thus: primary T cell (PBMC) proliferation, mite-allergic patient, tritiated thymidine. The note with it: medium 1071 ± 30. In outline:
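Ficoll-purified PBMC (5×10^4/well, triplicate) from one mite-allergic donor cultured 7 days at 37 °C with graded concentrations of purified Der p I, Der p II or their peptides in RPMI-1640 plus 5% human AB serum. 1 μCi ^3H-thymidine added for 16 h; CPM counted, stimulation index = antigen CPM/medium-only CPM.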

Assay [3] has as its system T cell lines primed in vitro to Der p II. In words: secondary proliferation of Der p II-primed T cell lines (Examples VIII, X, XI). To be noted: Der p II T-cell map and analogs. In a few lines: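 PBMC from house dust mite-allergic patients primed in vitro with native or recombinant Der p II at 20 μg/ml (or recombinant at 3 μg/ml), with x-irradiated (3500 Rads) autologous PBMC as antigen-presenting cells. Lines then challenged with Der p II-derived peptides; proliferation expressed as S.I., ranked sum scoring top three responses 3, 2, 1.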

Regarding “DP I-21.2: Der p I peptide; unique peptide (SINGNAPAEIDLRQMRTVTPIRMQ)”, in assay [1] (33 positive experiments, FIG. 13), the “T cell response to selected Der p I peptides” value is on record as “respond significantly”. The “positivity index (P.I.)” value in assay [1] (mean S.I. × percent responders, 33 patients) is “at least 150”.
For the substance “DF I-22.2: VAATESAYLAYRNTSLDLSEQELVD, amino acid residues 40-64 of Der f I”, the “T cell response to selected Der f I peptides” value in assay [1] (Der p I primed, 30 positive experiments, FIG. 15a) is “respond significantly”.
For the substance “DP I-1: Der p I peptide, amino acid residues 1-20 (TNACSINGNAPAEIDLRQMR)”, the “CPM ± S.D.” value in assay [2] (10 μg/ml) was found to be 1099 ± 48 CPM; in assay [2] (30 μg/ml), 3527 ± 73 CPM; in assay [2] (100 μg/ml) it was 2746 ± 81 CPM. Moreover, the “percent of positive responses (S.I. of at least 2)” value in assay [1] (33 patients) amounted to 73%. For the same substance, the T cell reactivity result in assay [1] (33 positive experiments) is listed as “significant regions of T cell reactivity”.
Consider “DP II-22.14: DKELEAVFEANQNTKTAKAE; unique peptide”, for which, in assay [3], the “T-cell reactivity (DPII-22 series development)” value is listed as “almost the same T-cell reactivity as the "parent" peptide”.
On the same count and under the same terms, the same measure for DP II-22: QLEAVFEANQNTKTAKIEIKASIDGLEV: “exhibits most of the reactivity found in the individual peptides”.
Consider “DP I-3: Der p I peptide (TVTPIRMQGGCGSCWAFSGVAATESAYLA)”, for which the “CPM ± S.D.” value is on record as 2608 ± 52 CPM in assay [2] (10 μg/ml), 1561 ± 13 CPM in assay [2] (30 μg/ml) and 5252 ± 67 CPM in assay [2] (100 μg/ml). Moreover, in assay [1] (33 positive experiments), the T cell reactivity entry is “significant regions of T cell reactivity”.
